Like-named read-outs stand apart in the source and are kept apart here. Some results are limits rather than exact numbers.

The target in experiment [1] is Lck (h) (Homo sapiens, UniProt P06239). The experiment can be described thus: Lck Human  Kinase Enzymatic Radiometric Assay. It is filed as biochemical. Put shortly: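 Substrate 33P-incorporation measured by scintillation counting after spotting on P30 filtermat and phosphoric acid washes. Human Lck reacted 40 min at RT in 50 mM Tris pH 7.5 with 10 mM MgAcetate, [gamma-33P]-ATP, 250 uM Cdc2 peptide, 0.1 mM EGTA and 0.1 mM Na3VO4.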

Experiment [2] addresses T1, Recombinant (1-346) HPK1 (h) (Homo sapiens, UniProt Q92918).
T1 construct: Recombinant (1-346) HPK1 (h) is incubated with 8 mM MOPS pH 7.0
T1 sequence (Q92918 1-346): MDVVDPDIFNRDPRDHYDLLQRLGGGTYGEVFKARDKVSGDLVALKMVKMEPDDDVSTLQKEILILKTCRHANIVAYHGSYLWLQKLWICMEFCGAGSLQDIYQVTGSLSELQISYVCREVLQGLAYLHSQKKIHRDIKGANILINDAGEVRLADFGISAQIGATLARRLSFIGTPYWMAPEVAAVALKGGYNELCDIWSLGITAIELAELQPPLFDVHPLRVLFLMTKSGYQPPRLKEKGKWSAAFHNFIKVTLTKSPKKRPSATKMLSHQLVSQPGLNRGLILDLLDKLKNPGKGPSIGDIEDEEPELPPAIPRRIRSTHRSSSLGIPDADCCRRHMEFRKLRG
The experiment can be described thus: HPK1 Human STE Kinase Enzymatic Radiometric Assay. The format is biochemical. On the procedure:
A stock solution of 10 mM of test compound is prepared in DMSO. The compound plate was prepared by 3-fold and 9-point serial dilutions. […] The reaction is initiated by The addition of the Mg/ATP mix. After incubation for 40 minutes at RT, the reaction is stopped by the addition of phosphoric acid to a concentration of 0.5%.

Sequence of Lck (h) (P06239 whole entry): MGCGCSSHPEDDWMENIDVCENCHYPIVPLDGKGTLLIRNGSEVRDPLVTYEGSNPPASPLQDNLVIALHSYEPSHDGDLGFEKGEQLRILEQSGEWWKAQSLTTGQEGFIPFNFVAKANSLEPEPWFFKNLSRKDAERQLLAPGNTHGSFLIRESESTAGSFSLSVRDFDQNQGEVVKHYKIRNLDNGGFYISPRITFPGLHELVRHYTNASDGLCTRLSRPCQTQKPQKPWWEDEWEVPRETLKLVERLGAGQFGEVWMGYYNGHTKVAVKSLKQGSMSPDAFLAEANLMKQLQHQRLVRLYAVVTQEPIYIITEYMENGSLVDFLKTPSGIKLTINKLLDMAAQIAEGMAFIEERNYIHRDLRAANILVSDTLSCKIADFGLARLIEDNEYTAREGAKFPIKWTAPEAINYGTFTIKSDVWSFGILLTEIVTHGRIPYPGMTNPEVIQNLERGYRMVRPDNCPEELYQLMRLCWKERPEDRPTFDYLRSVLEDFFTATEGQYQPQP

As for `N#Cc1cc(-c2cc(-c3ccc4c(c3)CCNC4=O)c(N)nc2F)ccc1OC1CCNCC1` [I-184, 5-(6-amino-2-fluoro-5-(1-oxo-1,2,3,4-tetrahydroisoquinolin-6-yl)pyridin-3-yl)-2-(piperidin-4-yloxy)benzonitrile], the concentration for half-maximal inhibition (IC50) in experiment [1] (read-out: Lck IC50 nM Range*) was more than 1000 nM; in experiment [2] (read-out: HPK1 IC50 nM Range*) it was 11 to 100 nM.

As for `Nc1nc(F)c(-c2ccc(N3CCNCC3)c(C(F)(F)F)c2)cc1-c1ccc2c(c1)CCNC2=O` [I-185, 6-(2-amino-6-fluoro-5-(4-(piperazin-1-yl)-3-(trifluoromethyl)phenyl)pyridin-3-yl)-3,4-dihydroisoquinolin-1(2H)-one], the values for the 50% inhibitory concentration (IC50) in experiment [1] (read-out: Lck IC50 nM Range*) and in experiment [2] (read-out: HPK1 IC50 nM Range*) were more than 1000 nM and 0.1 to 10 nM, respectively.

On to `Nc1nc(F)c(-c2ccc(OC3CCN(CC(F)(F)F)CC3)cc2)cc1-c1ccc2c(c1)CCNC2=O` [I-186, 6-(2-amino-6-fluoro-5-(4-((1-(2,2,2-trifluoroethyl)piperidin-4-yl)oxy)phenyl)pyridin-3-yl)-3,4-dihydroisoquinolin-1(2H)-one], for which the IC50 in experiment [1] (read-out: Lck IC50 nM Range*) was more than 1000 nM; in experiment [2] (read-out: HPK1 IC50 nM Range*), 11 to 100 nM.

Consider `Nc1nc(F)c(-c2ccc(OC3CCN(CCC(F)(F)F)CC3)cc2)cc1-c1ccc2c(c1)CCNC2=O` [I-187, 6-(2-amino-6-fluoro-5-(4-((1-(3,3,3-trifluoropropyl)piperidin-4-yl)oxy)phenyl)pyridin-3-yl)-3,4-dihydroisoquinolin-1(2H)-one], for which the IC50 in experiment [1] (read-out: Lck IC50 nM Range*) is more than 1000 nM; in experiment [2] (read-out: HPK1 IC50 nM Range*), 0.1 to 10 nM.

For `Nc1nc(F)c(-c2ccc(OC3CCN(CCCC(F)(F)F)CC3)cc2)cc1-c1ccc2c(c1)CCNC2=O` [I-188, 6-(2-amino-6-fluoro-5-(4-((1-(4,4,4-trifluorobutyl)piperidin-4-yl)oxy)phenyl)pyridin-3-yl)-3,4-dihydroisoquinolin-1(2H)-one], the half-inhibitory concentration (IC50) in experiment [1] (read-out: Lck IC50 nM Range*) is more than 1000 nM; in experiment [2] (read-out: HPK1 IC50 nM Range*), 0.1 to 10 nM.

As for `COCCN1CCC(Oc2ccc(-c3cc(-c4ccc5c(c4)CCNC5=O)c(N)nc3F)cc2)CC1` [I-189, 6-(2-amino-6-fluoro-5-(4-((1-(2-methoxyethyl)piperidin-4-yl)oxy)phenyl)pyridin-3-yl)-3,4-dihydroisoquinolin-1(2H)-one], the IC50 is more than 1000 nM in experiment [1] (read-out: Lck IC50 nM Range*) and 0.1 to 10 nM in experiment [2] (read-out: HPK1 IC50 nM Range*).

As to `CC(=O)N1CCC2(CC1)OCc1cc(-c3cc(-c4ccc5c(c4)CCNC5=O)c(N)nc3F)ccc1O2` [I-191, 6-(5-(1′-acetyl-4H-spiro[benzo[d][1,3]dioxine-2,4′-piperidin]-6-yl)-2-amino-6-fluoropyridin-3-yl)-3,4-dihydroisoquinolin-1(2H)-one], the IC50 in experiment [1] was more than 1000 nM; in experiment [2] it was 0.1 to 10 nM.

As for `CC(=O)N1CCC2(CC1)CC(=O)c1cc(-c3cc(-c4ccc5c(c4)CCNC5=O)c(N)nc3F)ccc1O2` [I-192, 1′-acetyl-6-(6-amino-2-fluoro-5-(1-oxo-1,2,3,4-tetrahydroisoquinolin-6-yl)pyridin-3-yl)spiro[chromane-2,4′-piperidin]-4-one], the IC50 in experiment [1] (read-out: Lck IC50 nM Range*) was more than 1000 nM; in experiment [2] (read-out: HPK1 IC50 nM Range*), 0.1 to 10 nM.

Take `CC(=O)N1CCC2(CCc3cc(-c4cc(-c5ccc6c(c5)CCNC6=O)c(N)nc4F)ccc3O2)CC1` [I-193, 6-(5-(1′-acetylspiro[chromane-2,4′-piperidin]-6-yl)-2-amino-6-fluoropyridin-3-yl)-3,4-dihydroisoquinolin-1(2H)-one]: the 50% inhibitory concentration (IC50) in experiment [1] (read-out: Lck IC50 nM Range*) was more than 1000 nM; in experiment [2] (read-out: HPK1 IC50 nM Range*), 0.1 to 10 nM.

`CC(=O)N1CCC(Oc2ccc(-c3cc(-c4ccc5c(c4)CCNC5=O)c(N)nc3F)cc2C#N)CC1` [I-194, 2-((1-acetylpiperidin-4-yl)oxy)-5-(6-amino-2-fluoro-5-(1-oxo-1,2,3,4-tetrahydroisoquinolin-6-yl)pyridin-3-yl)benzonitrile]: the half-maximal inhibitory concentration (IC50) in experiment [1] (read-out: Lck IC50 nM Range*) is more than 1000 nM; in experiment [2] (read-out: HPK1 IC50 nM Range*) it was 0.1 to 10 nM.

In the case of `Nc1nc(F)c(-c2ccc3c(c2)COC2(CCN(CC(F)(F)F)CC2)O3)cc1-c1ccc2c(c1)CCNC2=O` [I-195, 6-(2-amino-6-fluoro-5-(1′-(2,2,2-trifluoroethyl)-4H-spiro[benzo[d][1,3]dioxine-2,4′-piperidin]-6-yl)pyridin-3-yl)-3,4-dihydroisoquinolin-1(2H)-one], the results for the IC50 in experiment [1] (read-out: Lck IC50 nM Range*) and in experiment [2] (read-out: HPK1 IC50 nM Range*) were more than 1000 nM and 11 to 100 nM, respectively.

For `Nc1nc(F)c(-c2ccc3c(c2)C(=O)CC2(CCN(CC(F)(F)F)CC2)O3)cc1-c1ccc2c(c1)CCNC2=O` [I-196, 6-(6-amino-2-fluoro-5-(1-oxo-1,2,3,4-tetrahydroisoquinolin-6-yl)pyridin-3-yl)-1′-(2,2,2-trifluoroethyl)spiro[chromane-2,4′-piperidin]-4-one], the IC50 in experiment [1] (read-out: Lck IC50 nM Range*) is more than 1000 nM; in experiment [2] (read-out: HPK1 IC50 nM Range*) it was 0.1 to 10 nM.

For `Nc1nc(F)c(-c2ccc3c(c2)CCC2(CCN(CC(F)(F)F)CC2)O3)cc1-c1ccc2c(c1)CCNC2=O` [I-197, 6-(2-amino-6-fluoro-5-(1′-(2,2,2-trifluoroethyl)spiro[chromane-2,4′-piperidin]-6-yl)pyridin-3-yl)-3,4-dihydroisoquinolin-1(2H)-one], the IC50 was more than 1000 nM in experiment [1] (read-out: Lck IC50 nM Range*) and 11 to 100 nM in experiment [2] (read-out: HPK1 IC50 nM Range*).

With `N#Cc1cc(-c2cc(-c3ccc4c(c3)CCNC4=O)c(N)nc2F)ccc1OC1CCN(CC(F)(F)F)CC1` [I-198, 5-(6-amino-2-fluoro-5-(1-oxo-1,2,3,4-tetrahydroisoquinolin-6-yl)pyridin-3-yl)-2-((1-(2,2,2-trifluoroethyl)piperidin-4-yl)oxy)benzonitrile], the IC50 in experiment [1] (read-out: Lck IC50 nM Range*) is more than 1000 nM; in experiment [2] (read-out: HPK1 IC50 nM Range*) it was 11 to 100 nM.

On to `CC(=O)N1CCC(Oc2ccc(-c3cc(-c4ccc5c(c4)CCNC5=O)c(N)nc3F)cc2C(F)(F)F)CC1` [I-199, 6-(5-(4-((1-acetylpiperidin-4-yl)oxy)-3-(trifluoromethyl)phenyl)-2-amino-6-fluoropyridin-3-yl)-3,4-dihydroisoquinolin-1(2H)-one], for which the half-maximal inhibitory concentration (IC50) is more than 1000 nM in experiment [1] (read-out: Lck IC50 nM Range*) and 11 to 100 nM in experiment [2] (read-out: HPK1 IC50 nM Range*).

For the molecule `CC(=O)N1CCN(c2ccc(-c3cc(-c4ccc5c(c4)CCNC5=O)c(N)nc3F)cc2C(F)(F)F)CC1` [I-200, 6-(5-(4-(4-acetylpiperazin-1-yl)-3-(trifluoromethyl)phenyl)-2-amino-6-fluoropyridin-3-yl)-3,4-dihydroisoquinolin-1(2H)-one], the IC50 in experiment [1] (read-out: Lck IC50 nM Range*) is more than 1000 nM; in experiment [2] (read-out: HPK1 IC50 nM Range*), 0.1 to 10 nM.

For `Nc1nc(F)c(-c2ccc(OC3CCN(CC(F)(F)F)CC3)c(C(F)(F)F)c2)cc1-c1ccc2c(c1)CCNC2=O` [I-201, 6-(2-amino-6-fluoro-5-(4-((1-(2,2,2-trifluoroethyl)piperidin-4-yl)oxy)-3-(trifluoromethyl)phenyl)pyridin-3-yl)-3,4-dihydroisoquinolin-1(2H)-one], the concentration for half-maximal inhibition (IC50) was more than 1000 nM in experiment [1] (read-out: Lck IC50 nM Range*) and 101 to 1000 nM in experiment [2] (read-out: HPK1 IC50 nM Range*).

Turning to `Nc1nc(F)c(-c2ccc(N3CCN(CC(F)(F)F)CC3)c(C(F)(F)F)c2)cc1-c1ccc2c(c1)CCNC2=O` [I-202, 6-(2-amino-6-fluoro-5-(4-(4-(2,2,2-trifluoroethyl)piperazin-1-yl)-3-(trifluoromethyl)phenyl)pyridin-3-yl)-3,4-dihydroisoquinolin-1(2H)-one], the figures for the half-inhibitory concentration (IC50) in experiment [1] (read-out: Lck IC50 nM Range*) and in experiment [2] (read-out: HPK1 IC50 nM Range*) were more than 1000 nM and 11 to 100 nM, respectively.

`Nc1nc(F)c(-c2ccc(OC3CCN(C(=O)C4CC4)CC3)cc2)cc1-c1ccc2c(c1)CCNC2=O` [I-203, 6-(2-amino-5-(4-((1-(cyclopropanecarbonyl)piperidin-4-yl)oxy)phenyl)-6-fluoropyridin-3-yl)-3,4-dihydroisoquinolin-1(2H)-one]: the IC50 was more than 1000 nM in experiment [1] (read-out: Lck IC50 nM Range*) and 0.1 to 10 nM in experiment [2] (read-out: HPK1 IC50 nM Range*).

Turning to `Nc1nc(F)c(-c2ccc3c(c2)OCCCO3)cc1-c1ccc2c(c1)CCNC2=O` [I-204, 6-(2-amino-5-(3,4-dihydro-2H-benzo[b][1,4]dioxepin-7-yl)-6-fluoropyridin-3-yl)-3,4-dihydroisoquinolin-1(2H)-one], the half-maximal inhibitory concentration (IC50) was more than 1000 nM in experiment [1] (read-out: Lck IC50 nM Range*) and 0.1 to 10 nM in experiment [2] (read-out: HPK1 IC50 nM Range*).

Regarding `Nc1nc(F)c(-c2ccc3c(c2)OCCCO3)cc1-c1cc2c(cc1F)C(=O)NCC2` [I-205, 6-(2-amino-5-(3,4-dihydro-2H-benzo[b][1,4]dioxepin-7-yl)-6-fluoropyridin-3-yl)-7-fluoro-3,4-dihydroisoquinolin-1(2H)-one], the IC50 was more than 1000 nM in experiment [1] (read-out: Lck IC50 nM Range*) and 0.1 to 10 nM in experiment [2] (read-out: HPK1 IC50 nM Range*).

Turning to `CN1CCCN(S(=O)(=O)c2ccc(-c3cc(-c4ccc5c(c4)CCNC5=O)c(N)nc3F)cc2)CC1` [I-206, 6-(2-amino-6-fluoro-5-(4-((4-methyl-1,4-diazepan-1-yl)sulfonyl)phenyl)pyridin-3-yl)-3,4-dihydroisoquinolin-1(2H)-one], the half-maximal inhibitory concentration (IC50) in experiment [1] (read-out: Lck IC50 nM Range*) was more than 1000 nM; in experiment [2] (read-out: HPK1 IC50 nM Range*), 0.1 to 10 nM.

Consider `CN1CCN(S(=O)(=O)c2ccc(-c3cc(-c4ccc5c(c4)CCNC5=O)c(N)nc3F)cc2)CC1` [I-207, 6-(2-amino-6-fluoro-5-(4-((4-methylpiperazin-1-yl)sulfonyl)phenyl)pyridin-3-yl)-3,4-dihydroisoquinolin-1(2H)-one], for which the IC50 in experiment [1] (read-out: Lck IC50 nM Range*) was more than 1000 nM; in experiment [2] (read-out: HPK1 IC50 nM Range*), 0.1 to 10 nM.

As to `COCCN1CCC(OC)(c2ccc(-c3cc(-c4ccc5c(c4)CCNC5=O)c(N)nc3F)cc2)CC1` [I-208, 6-(2-amino-6-fluoro-5-(4-(4-methoxy-1-(2-methoxyethyl)piperidin-4-yl)phenyl)pyridin-3-yl)-3,4-dihydroisoquinolin-1(2H)-one], the 50% inhibitory concentration (IC50) in experiment [1] (read-out: Lck IC50 nM Range*) is more than 1000 nM; in experiment [2] (read-out: HPK1 IC50 nM Range*), 0.1 to 10 nM.

One may read the IC50 as the point on the concentration scale where inhibition reaches its midpoint.

For the origin of these results see patent publication US20240343704A1, “HALO-SUBSTITUTED AMINO PYRIDINE COMPOUNDS AS INHIBITORS OF THE HAEMATOPOIETIC PROGENITOR KINASE 1 (HPK1)” (priority 2021, published 2024).
